pEC50, pIC50, pKd: −log10 of the molar value. Read-outs that look alike come from different tables or passages of the source.
Columns and labels:
[1] = target: BCL6 BTB domain (biotin-thrombin-BCL6 amino acids 1-129) (Homo sapiens (Human), UniProt P41182); assay: Surface Plasmon Resonance (SPR) assay; type: binding; details: Biacore T200, single cycle kinetic analysis
Procedure: Surface Plasmon Resonance (SPR) Assay
SPR studies were performed using a Biacore™ T200 instrument (GE Health Sciences Inc.). […] The Biacore flow rate was set at 100 μl/min. […] Curve fitting and KD calculations were performed with the Biacore T200 Evaluation software (GE Health Sciences Inc).

[2] = tested on: BCL6 reporter construct in SuDHL4-3×BCL6-TK-Luc cells; assay: Cell-based luciferase assay (BCL6 reporter); details: 48 h, read-out: Luc IC50
Procedure: Cell-Based Luciferase Assay:
A BCL6 reporter construct containing three copies of the consensus BCL6 binding site, the TK promoter, and the firefly luciferase gene was stably expressed in SuDHL4 cells after lentivirus infection and selection with Blasticidin. SuDHL4-3×BCL6-TK-Luc cells were seeded into a Viewplate 384-well assay dish at 15,000 cells/well in […] (Alpha-MEM high glucose containing 10% FBS, 25 mM HEPES, […] GlutaMAX, 100 µg/mL Normocin, and […] Gentamycin, Invitrogen). A HP D300 digital dispenser was used to dose cells with DMSO or test compounds across a 10-point range of concentrations (high dose of 10 μM), and cultures were grown in a humidified 5% CO2 incubator at 37° C. After two days, plates were removed from the incubator and equilibrated to room temperature. An equal volume of neolite reporter gene assay reagent was added to each well, and samples were processed according to the manufacturer's instructions (Perkin Elmer). The luminescent signal was measured using an Envision plate reader equipped with a US-Luminescence detector.

Karpas422 cells = assay: Tumor cell growth inhibition assay; type: cell-based; details: Homo sapiens, KARPAS-422, 144 h, read-out: GI Karpas EC50
Procedure: Tumor Cell Growth Inhibition Assay:
Karpas422 cells were seeded into a 96-well plate at 2,000 cells/well in 150 μl medium (Alpha-MEM containing 10% FBS, […] Normocin, and […] Gentamycin, Invitrogen). A HP D300 digital dispenser was used to dose cells with DMSO or test compounds across a 10-point range of concentrations (high dose of 5 μM), and cultures were grown in a humidified 5% CO2 incubator at 37° C. After six days, plates were removed from incubator and equilibrated to room temperature. An equal volume of ATPlite assay reagent was added to each well, and samples were processed according to the manufacturer's instructions (Perkin Elmer). The luminescent signal was measured using an Envision plate reader equipped with a US-Luminescence detector.

[3] = SuDHL4-3×BCL6-TK-Luc cells, two days
[4] = Karpas422 cells, six days, ATPlite

Compound	pKd [1]	pIC50 [2]	pEC50 (Karpas422 cells)	pIC50 [2, 3]	pEC50 (Karpas422 cells; [4])
COc1c(-c2cn(CC(=O)Nc3cc(N4CCOC[C@@H]4C)nc(F)c3Cl)c3nc4n(c(=O)c23)CCC4)cc(C(N)=O)c(O)c1OC [I-70, (S)-5-(1-(2-((3-chloro-2-fluoro-6-(3-methyl-morpholino)pyridin-4-yl)amino)-2-oxoethyl)-4-oxo-4,6,7,8-tetra-hydro-1H-dipyrrolo [1,2-a:2′,3′-d]pyrimi-din-3-yl)-2-hydroxy-3,4-dimethoxy-benzamide]	6.59	5.42	5.39		
CCN1CCN(c2cc(NC(=O)Cn3cc(-c4cc(F)c(O)c(C(N)=O)c4)c4c(=O)n5c(nc43)CCC5)c(Cl)c(F)n2)[C@@H](C)C1 [I-81, (S)-5-(1-(2-((3-chloro-6-(4-ethyl-2-methyl-piperazin-1-yl)-2-fluoropyridin-4-yl)amino)-2-oxoethyl)-4-oxo-4,6,7,8-tetrahydro-1H-dipyrrolo[1,2-a:2′,3′-d]pyrimidin-3-yl)-3-fluoro-2-hydroxy-benzamide]	8.81			7.55	7.50
C[C@H]1CN(C)CCN1c1cc(NC(=O)Cn2cc(-c3cc(C#N)c(O)c4c3OCO4)c3c(=O)n4c(nc32)CCC4)c(Cl)c(F)n1 [I-67, (S)-N-(3-chloro-6-(2,4-dimethyl-piperazin-1-yl)-2-fluoropyridin-4-yl)-2-(3-(6-cyano-7-hydroxybenzo[d][1,3]dioxol-4-yl)-4-oxo-4,6,7,8-tetrahydro-1H-dipyrrolo[1,2-a:2′,3′-d]pyrimidin-1-yl) acetamide]	8.17	6.27	6.06		
C[C@H]1CN(C2COC2)CCN1c1cc(NC(=O)Cn2cc(-c3cc(C(N)=O)c(O)c(F)c3F)c3c(=O)n4c(nc32)CCC4)c(Cl)cn1 [I-7, (S)-5-(1-(2-((5-chloro-2-(2-methyl-4-(oxetan-3-yl)piperazin-1-yl)pyridin-4-yl)amino)-2-oxoethyl)-4-oxo-4,6,7,8-tetrahydro-1H-dipyrrolo[1,2-a:2′,3′-d]pyrimidin-3-yl)-3,4-difluoro-2-hydroxy-benzamide]	7.75			6.67	6.52
COc1c(-c2cn(CC(=O)Nc3cc(N4CCN(C)C[C@@H]4C)nc(F)c3Cl)c3nc4n(c(=O)c23)CCC4)cc(C(N)=O)c(O)c1F [I-91, (S)-5-(1-(2-((3-chloro-6-(2,4-dimethylpipera-zin-1-yl)-2-fluoro-pyridin-4-yl)amino)-2-oxoethyl)-4-oxo-4,6,7,8-tetrahydro-1H-dipyrrolo [1,2-a:2′,3′-d]pyrimidin-3-yl)-3-fluoro-2-hydroxy-4-methoxy-benzamide]	7.02	5.99	5.75		
NC(=O)c1cc(-c2cn(CC(=O)Nc3cc(N4CCCC4)nc(F)c3Cl)c3nc4n(c(=O)c23)CCC4)cc(F)c1O [I-76, 5-(1-(2-((3-chloro-2-fluoro-6-(pyrrolidin-1-yl)pyridin-4-yl)amino)-2-oxoethyl)-4-oxo-4,6,7,8-tetrahydro-1H-dipyrrolo[1,2-a:2′,3′-d]pyrimidin-3-yl)-3-fluoro-2-hydroxy-benzamide]	8.52			7.07	7.03
C[C@H]1CN(CC2CC2)CCN1c1cc(NC(=O)Cn2cc(-c3cc(C(N)=O)c(O)c(F)c3F)c3c(=O)n4c(nc32)CCCC4)c(Cl)c(F)n1 [I-45, (S)-5-(1-(2-((3-chloro-6-(4-(cyclopropyl-methyl)-2-methyl-piperazin-1-yl)-2-fluoropyridin-4-yl)amino)-2-oxoethyl)-4-oxo-1,4,6,7,8,9-hexahydropyrido [1,2-a]pyrrolo[2,3-d]pyrimidin-3-yl)-3,4-difluoro-2-hydroxy-benzamide]	7.50	6.33	5.88		
COCCN1CCN(c2cc(NC(=O)Cn3cc(-c4cc(F)c(O)c(C(N)=O)c4)c4c(=O)n5c(nc43)CCC5)c(Cl)c(F)n2)[C@@H](C)C1 [I-77, (S)-5-(1-(2-((3-chloro-2-fluoro-6-(4-(2-methoxyethyl)-2-methylpiperazin-1-yl)pyridin-4-yl)amino)-2-oxoethyl)-4-oxo-4,6,7,8-tetrahydro-1H-dipyrrolo[1,2-a:2′,3′-d]pyrimidin-3-yl)-3-fluoro-2-hydroxy-benzamide]	8.85			7.56	7.68
NC(=O)c1cc(-c2cn(CC(=O)Nc3cc(N4CCOCC4)ccc3Cl)c3nc4n(c(=O)c23)CCC4)c(F)c(F)c1O [I-31, 5-(1-(2-((2-chloro-5-morpholinophenyl)amino)-2-oxoethyl)-4-oxo-4,6,7,8-tetrahydro-1H-dipyrrolo[1,2-a:2′,3′-d]pyrimidin-3-yl)-3,4-difluoro-2-hydroxy-benzamide]	6.85	5.20	5.57		
C[C@H]1CN(C)C[C@H](C)N1c1cc(NC(=O)Cn2cc(-c3cc(C(N)=O)c(O)c(F)c3F)c3c(=O)n4c(nc32)CCC4)c(Cl)cn1 [I-54, 5-(1-(2-((5-chloro-2-((2S,6S)-2,4,6-trimethylpiperazin-1-yl)pyridin-4-yl)amino)-2-oxoethyl)-4-oxo-4,6,7,8-tetrahydro-1H-dipyrrolo[1,2-a:2′,3′-d]pyrimidin-3-yl)-3,4-difluoro-2-hydroxy-benzamide]	7.01	5.22	5.70		
CC1Cc2nc3c(c(-c4cc(C(N)=O)c(O)c5c4OCO5)cn3CC(=O)Nc3cc(N4CCN(C)C[C@@H]4C)nc(F)c3Cl)c(=O)n2C1 (stereo partly drawn) [I-87, 7-(1-(2-((3-chloro-6-((S)-2,4-dimethyl-piperazin-1-yl)-2-fluoropyridin-4-yl)amino)-2-oxoethyl)-7-methyl-4-oxo-4,6,7,8-tetrahydro-1H-dipyrrolo[1,2-a:2′,3′-d]pyrimidin-3-yl)-4-hydroxybenzo[d][1,3] dioxole-5-carboxamide]	9.11			7.97	8.04
C[C@H]1COCCN1c1cc(NC(=O)Cn2cc(-c3cc(C(N)=O)c(O)c(F)c3F)c3c(=O)n4c(nc32)CCCCC4)c(Cl)c(F)n1 [I-51, (S)-5-(1-(2-((3-chloro-2-fluoro-6-(3-methyl-morpholino)pyridin-4-yl)amino)-2-oxoethyl)-4-oxo-4,6,7,8,9,10-hexahydro-1H-pyrrolo [2′,3′:4,5]pyrimido [1,2-a]azepin-3-yl)-3,4-difluoro-2-hydroxy-benzamide]	7.05			5.52	6.01
C[C@H]1CN(C2COC2)CCN1c1cc(NC(=O)Cn2cc(-c3cc(C(N)=O)c(O)c(F)c3F)c3c(=O)n4c(nc32)CCCCC4)c(Cl)c(F)n1 [I-50, (S)-5-(1-(2-((3-chloro-2-fluoro-6-(2-methyl-4-(oxetan-3-yl)piperazin-1-yl)pyridin-4-yl)amino)-2-oxo-ethyl)-4-oxo-4,6,7,8,9,10-hexahydro-1H-pyrrolo [2′,3′:4,5]pyrimido [1,2-a]azepin-3-yl)-3,4-difluoro-2-hydroxybenzamide]	7.37			6.40	6.32
C[C@H]1COCCN1c1cc(NC(=O)Cn2cc(-c3cc(C(N)=O)c(O)c(Cl)c3F)c3c(=O)n4c(nc32)CCC4)c(Cl)cn1 [I-13, (S)-3-chloro-5-(1-(2-((5-chloro-2-(3-methyl-morpholino)pyridin-4-yl)amino)-2-oxoethyl)-4-oxo-4,6,7,8-tetra-hydro-1H-dipyrrolo [1,2-a:2′,3′-d]pyrimidin-3-yl)-4-fluoro-2-hydroxybenzamide]	6.95			5.88	5.73
C[C@H]1COCCN1c1cc(NC(=O)Cn2cc(-c3cc(C(N)=O)c(O)c(F)c3F)c3c(=O)n4c(nc32)CCCC4)c(Cl)c(F)n1 [I-42, (S)-5-(1-(2-((3-chloro-2-fluoro-6-(3-methyl-morpholino)pyridin-4-yl)amino)-2-oxoethyl)-4-oxo-1,4,6,7,8,9-hexahydropyrido [1,2-a]pyrrolo[2,3-d]pyrimidin-3-yl)-3,4-difluoro-2-hydroxy-benzamide]	7.54			6.39	6.48
CCN1CCN(c2cc(NC(=O)Cn3cc(-c4cc(C(N)=O)c(O)c(F)c4F)c4c(=O)n5c(nc43)CCC5)c(Cl)c(F)n2)[C@@H](C)C1 [I-23, (S)-5-(1-(2-((3-chloro-6-(4-ethyl-2-methyl-piperazin-1-yl)-2-fluoro-pyridin-4-yl)amino)-2-oxoethyl)-4-oxo-4,6,7,8-tetrahydro-1H-dipyrrolo [1,2-a:2′,3′-d]pyrimidin-3-yl)-3,4-difluoro-2-hydroxybenzamide]	8.10			7.04	6.99

Source: US11242351B2, “Tricyclic inhibitors of the BCL6 BTB domain protein-protein interaction and uses thereof” (priority 2017, dated 2022)
